In patent US20100035932A1, “NOVEL FORMYL PEPTIDE RECEPTOR LIKE 1 AGONISTS THAT INDUCE MACROPHAGE TUMOR NECROSIS FACTOR ALPHA AND COMPUTATIONAL STRUCTURE-ACTIVITY RELATIONSHIP ANALYSIS OF THEREOF” (priority 2008, published 2010):

How the values were obtained:
J774.A1 macrophages = assay: TNF-α production in J774.A1 macrophages (ELISA); format: cell-based, murine; details: for fold induction at 50 µM: Mus musculus, J774.A1, 24 h, relative fold of activation compared to vehicle (DMSO) control for 50 μM compound, N.A. = no activity was observed, read-out: TNF-α production; for Determined class of macrophage TNF-α inducing activity: experimentally determined class
human neutrophils = assay: Ca2+ mobilization in human neutrophils (FLIPR Calcium 3); details: Neutrophil, read-out: [Ca2+]i EC50

Work on `O=C(N/N=C/c1ccc(-c2ccc([N+](=O)[O-])cc2Cl)o1)c1ccc2c(c1)OCO2` [Compound 3] yielded a fold induction at 50 µM (J774.A1 macrophages) of 30 to 40 and an EC50 (human neutrophils) of 0.3 µM.

`CN(C)c1ccc(/C=N\NC(=O)c2ccc([N+](=O)[O-])cc2)cc1` [Compound 4] showed a fold induction at 50 µM (J774.A1 macrophages) of 20 to 25 and an EC50 (human neutrophils) of 9 µM.

`O=C(N/N=C/c1ccc(-c2cccc(Cl)c2Cl)o1)c1ccccc1` [Compound 5] gave a fold induction at 50 µM (J774.A1 macrophages) of 7 to 10 and an EC50 (human neutrophils) of 2.3 µM.

`O=C(N/N=C/c1ccc(-c2cc(Cl)ccc2Cl)o1)c1ccc([N+](=O)[O-])cc1` [Compound 7] showed a fold induction at 50 µM (J774.A1 macrophages) of under 5 and an EC50 (human neutrophils) of 10 µM.

`O=C(N/N=C/c1ccc(-c2ccc(Cl)c(Cl)c2)o1)c1ccc2c(c1)OCO2` [Compound 8] gave a fold induction at 50 µM (J774.A1 macrophages) of under 5 and an EC50 (human neutrophils) of 11.9 µM.

For `Cc1ccc(C(=O)N/N=C/c2ccc(-c3cccc(C(F)(F)F)c3)o2)cn1` [Compound 9], the fold induction at 50 µM (J774.A1 macrophages) was under 5, the “TNF-α production, primary screening of agonists AG 1-26” value (J774.A1 macrophages; murine J774.A1 macrophages) was “induced modest levels of TNF-α production” and the EC50 (human neutrophils) was 15.8 µM.

Work on `Cc1ccc(C(=O)N/N=C/c2ccc(-c3cc(Cl)c(Cl)cc3Cl)o2)cn1` [Compound 10] yielded a fold induction at 50 µM (J774.A1 macrophages) of under 5 and an EC50 (human neutrophils) of 32 µM.

Work on `O=C(N/N=C1\C(=O)N(CCc2ccccc2)c2ccccc21)c1ccc2c(c1)OCO2` [Compound 17] yielded a fold induction at 50 µM (J774.A1 macrophages) of under 2 and an EC50 (human neutrophils) of 8.9 µM.

With `COc1cc(/C=N\NC(=O)c2cccc(C)c2O)ccc1OCc1ccccc1` [Compound 25] the EC50 (human neutrophils) was 0.74 µM.

In the case of `COc1ccc(C(=O)N/N=C\c2ccc(N(C)C)cc2)cc1` [Compound 26], the EC50 (human neutrophils) is reported as 3 µM.

Compound `O=C(N/N=C/c1cc(Br)cc(I)c1O)c1ccc2c(c1)OCCO2` [Compound 27] has an EC50 (human neutrophils) of 8 µM.

Compound `O=C(N/N=C/c1cc(/N=N\c2cccc(C(F)(F)F)c2)ccc1O)c1ccc2c(c1)OCO2` [Compound 28] has an EC50 (human neutrophils) of 8.5 µM.

In the case of `O=C(N/N=C1\C(=O)N(Cc2cccc3ccccc23)c2ccccc21)c1ccc2c(c1)OCO2` [Compound 29], the EC50 (human neutrophils) is reported as 9.3 µM.

Compound `O=C(N/N=C/c1cc(Br)c(Br)o1)c1ccc2c(c1)OCCO2` [Compound 30] has an EC50 (human neutrophils) of 9.8 µM.

Work on `O=C(/C=C/c1ccco1)Oc1cccc(/C=N/NC(=O)c2ccc3c(c2)OCO3)c1` [Compound 31] yielded an EC50 (human neutrophils) of 12.4 µM.

`O=C(N/N=C/c1ccc(-c2ccc(O)c(C(=O)O)c2)o1)c1cccnc1` [Compound 32] was tested, and the EC50 (human neutrophils) was 12.5 µM.

Compound `CN(C)c1ccc(/C=N\NC(=O)c2cccc(F)c2)cc1` [Compound 33] has an EC50 (human neutrophils) of 13.1 µM.

Compound `CN(C)c1ccc(/C=N/NC(=O)c2ccc3c(c2)OCO3)cc1` [Compound 34] has an EC50 (human neutrophils) of 17.9 µM.

With `O=C(N/N=C/c1ccco1)c1ccc(Br)cc1O` [Compound 35] the EC50 (human neutrophils) was 22.7 µM.

`Cc1ccc(C(=O)N/N=C/c2ccc(C)o2)cc1` [Compound 36] was tested, and the EC50 (human neutrophils) was 25.5 µM.

`O=C(N/N=C/c1c(O)ccc2ccccc12)c1ccc2c(c1)OCO2` [Compound 37] gave an EC50 (human neutrophils) of 26.8 µM.

With `COc1ccc(/C=N/NC(=O)c2ccc3c(c2)OCO3)c(OC)c1` [Compound 38] the EC50 (human neutrophils) was 28.1 µM.

With `O=C(N/N=C/c1ccc(-c2ccc(Cl)c([N+](=O)[O-])c2)o1)c1ccc2c(c1)OCO2` [Compound 82] the “Determined class of macrophage TNF-α inducing activity” value (“Determined class” below) (J774.A1 macrophages) was “NA (inactive derivatives were placed in the nonactive group labeled “NA”)”.

For `O=C(N/N=C/c1ccc(-c2ccc(Cl)cc2)o1)c1ccncc1` [Compound 83], the “Determined class” value (J774.A1 macrophages) was “NA (inactive derivatives were placed in the nonactive group labeled “NA”)”.

With `O=C(N/N=C/c1ccc(-c2ccc(Cl)c(Cl)c2)o1)c1ccncc1` [Compound 84] the “Determined class” value (J774.A1 macrophages) was “NA (inactive derivatives were placed in the nonactive group labeled “NA”)”.

`CCc1ccc(C(=O)N/N=C/c2ccc(-c3ccc(C)c(Cl)c3)o2)nc1` [Compound 85] was tested, and the “Determined class” value (J774.A1 macrophages) was “NA (inactive derivatives were placed in the nonactive group labeled “NA”)”.

`O=C(N/N=C/c1ccc(-c2cccc(Br)c2)o1)c1ccccn1` [Compound 86] was tested, and the “Determined class” value (J774.A1 macrophages) was “NA (inactive derivatives were placed in the nonactive group labeled “NA”)”.

`CSCC[C@H](NC=O)C(=O)N[C@@H](CC(C)C)C(=O)N[C@@H](Cc1ccccc1)C(=O)O` [fMLF, N-formyl-Met-Leu-Phe, reference compound] was tested, and the “TNF-α production by peptide agonists” value (J774.A1 macrophages; 50 μM, 24 hr) was “failed to induce macrophage TNF-α production”.
